Holding throughout (details): stereoisomer not certain
Data set [1] is described as follows: RP, Waters CORTECS T3, 100 × 2.1 mm, 2.7 µm, 0.3 mL/min, estimated dead time 0.73 min; A: water + 0.1% formic acid, pH 3; B: methanol + 0.1% formic acid, pH 3; gradient (min/%B) 0/5 5/5 25/95 25.1/100 35/100 35.1/5 45/5.
Data set [2] is described as follows: RP, Waters CORTECS T3, 100 × 2.1 mm, 2.7 µm, 0.15 mL/min, estimated dead time 1.5 min; A: water + 0.1% formic acid, pH 3; B: methanol + 0.1% formic acid, pH 3; gradient (min/%B) 0/0 1/0 6/5 30/100 35/100 35.1/0 40/0.
Data set [3] can be described thus: RP, Waters ACQUITY UPLC BEH C18, 100 × 2.1 mm, 1.7 µm, 0.1 mL/min, estimated dead time 2.2 min; A: water + 0.1% formic acid, pH 3; B: methanol + 0.1% formic acid, pH 3; gradient (min/%B) 0/5 5/5 25/100 30/100 30.1/5 35/5.
A short description of data set [4]: RP, Waters CORTECS T3, 100 × 2.1 mm, 2.7 µm, 0.3 mL/min, estimated dead time 0.73 min; A: water + 0.1% formic acid, pH 3; B: methanol + 0.1% formic acid, pH 3; gradient (min/%B) 0/0 5/0 25/100 30/100 30.1/0 35/0.
A short description of data set [5]: RP, Waters CORTECS T3, 100 × 2.1 mm, 2.7 µm, 0.3 mL/min, estimated dead time 0.73 min; A: water + 0.1% formic acid, pH 3; B: methanol + 0.1% formic acid, pH 3; gradient (min/%B) 0/0 1/0 6/5 30/100 35/100 35.1/0 40/0.
A short description of data set [6]: RP, Waters ACQUITY UPLC BEH C18, 100 × 2.1 mm, 1.7 µm, 0.1 mL/min, estimated dead time 2.2 min; A: water + 0.1% formic acid, pH 3; B: methanol + 0.1% formic acid, pH 3; gradient (min/%B) 0/5 5/5 25/95 25.1/100 35/100 35.1/5 45/5.
Data set [7] can be described thus: HILIC, Merck SeQuant ZIC-HILIC, 150 × 2.1 mm, 5 µm, 0.75 mL/min, estimated dead time 0.44 min; A: water + 10 mM ammonium formate, pH 6; B: 5% water + 95% acetonitrile + 10 mM ammonium formate, pH 6; gradient (min/%B) 0/95 5/95 20/57 25/57 30/95 40/95.
Data set [8] is described as follows: RP, Waters CORTECS T3, 100 × 2.1 mm, 2.7 µm, 0.2 mL/min, estimated dead time 1.1 min; A: water + 0.1% formic acid, pH 3; B: methanol + 0.1% formic acid, pH 3; gradient (min/%B) 0/0 1/0 6/5 30/100 35/100 35.1/0 40/0.
Data set [9] in a line: RP, Thermo Scientific Hypercarb, 150 × 2.1 mm, 5 µm, 0.1 mL/min, estimated dead time 3.3 min; A: water + 0.1% formic acid, pH 3; B: methanol + 0.1% formic acid, pH 3; gradient (min/%B) 0/5 5/5 20/100 35/100 35.1/5 45/5.
Data set [10] can be described thus: RP, Waters ACQUITY UPLC BEH C18, 100 × 2.1 mm, 1.7 µm, 0.1 mL/min, estimated dead time 2.2 min; A: water + 0.045% formic acid + 0.11% ammonium hydroxide, pH 7; B: methanol; gradient (min/%B) 0/5 5/5 25/95 25.1/100 35/100 35.1/5 45/5.
Data set [11] can be described thus: RP, Waters ACQUITY UPLC BEH C18, 100 × 2.1 mm, 1.7 µm, 0.2 mL/min, estimated dead time 1.1 min; A: water + 0.025% formic acid + 20 mM ammonium acetate + 0.055% ammonium hydroxide, pH 7; B: methanol; gradient (min/%B) 0/5 5/5 25/100 30/100 30.1/5 35/5.
Assay in data set [12]: as above
This is another data set of the same source.

Data set [13] is described as follows: RP, Waters CORTECS T3, 100 × 2.1 mm, 2.7 µm, 0.1 mL/min, estimated dead time 2.2 min; A: water + 0.1% formic acid, pH 3; B: methanol + 0.1% formic acid, pH 3; gradient (min/%B) 0/0 1/0 6/5 30/100 35/100 35.1/0 40/0.
The nature of data set [14]: RP, Waters CORTECS T3, 100 × 2.1 mm, 2.7 µm, 0.2 mL/min, estimated dead time 1.1 min; A: water + 0.045% formic acid + 0.11% ammonium hydroxide, pH 7; B: methanol; gradient (min/%B) 0/5 5/5 25/95 25.1/100 35/100 35.1/5 45/5.
A short description of data set [15]: RP, Waters CORTECS T3, 100 × 2.1 mm, 2.7 µm, 0.1 mL/min, estimated dead time 2.2 min; A: water + 0.1% formic acid, pH 3; B: methanol + 0.1% formic acid, pH 3; gradient (min/%B) 0/5 5/5 25/95 25.1/100 35/100 35.1/5 45/5.
A short description of data set [16]: RP, Waters CORTECS T3, 100 × 2.1 mm, 2.7 µm, 0.3 mL/min, estimated dead time 0.73 min; A: water + 0.1% formic acid, pH 3; B: methanol + 0.1% formic acid, pH 3; gradient (min/%B) 0/5 5/5 25/100 30/100 30.1/5 35/5.
A short description of data set [17]: HILIC, Merck SeQuant ZIC-HILIC, 150 × 2.1 mm, 5 µm, 0.75 mL/min, estimated dead time 0.44 min; A: water + 0.1% acetic acid + 10 mM ammonium acetate, pH 4; B: 5% water + 95% acetonitrile + 0.1% acetic acid + 10 mM ammonium acetate, pH 4; gradient (min/%B) 0/95 5/95 20/57 25/57 30/95 40/95.
Data set [18] in a line: RP, Waters CORTECS T3, 100 × 2.1 mm, 2.7 µm, 0.25 mL/min, estimated dead time 0.88 min; A: water + 0.1% formic acid, pH 3; B: methanol + 0.1% formic acid, pH 3; gradient (min/%B) 0/0 1/0 6/5 30/100 35/100 35.1/0 40/0.
A short description of data set [19]: HILIC, Waters XBridge BEH Amide, 100 × 2.1 mm, 2.5 µm, 0.5 mL/min, estimated dead time 0.44 min; A: water + 0.1% acetic acid + 10 mM ammonium acetate, pH 4; B: 5% water + 95% acetonitrile + 0.1% acetic acid + 10 mM ammonium acetate, pH 4; gradient (min/%B) 0/95 5/95 20/57 25/57 30/95 40/95.
Data set [20] is described as follows: RP, Waters CORTECS T3, 100 × 2.1 mm, 2.7 µm, 0.2 mL/min, estimated dead time 1.1 min; A: water + 0.1% formic acid, pH 3; B: methanol + 0.1% formic acid, pH 3; gradient (min/%B) 0/5 5/5 25/95 25.1/100 35/100 35.1/5 45/5.
Data set [21] in a line: RP, Waters CORTECS T3, 100 × 2.1 mm, 2.7 µm, 0.2 mL/min, estimated dead time 1.1 min; A: water + 0.1% formic acid, pH 3; B: methanol + 0.1% formic acid, pH 3; gradient (min/%B) 0/0 1/0 6/5 30/100 35/100 35.1/0 40/0. This is another data set of the same source.
Data set [22] is described as follows: RP, Waters CORTECS T3, 100 × 2.1 mm, 2.7 µm, 0.15 mL/min, estimated dead time 1.5 min; A: water + 0.1% formic acid, pH 3; B: methanol + 0.1% formic acid, pH 3; gradient (min/%B) 0/5 5/5 25/95 25.1/100 35/100 35.1/5 45/5.
Data set [23] can be described thus: RP, Waters CORTECS T3, 100 × 2.1 mm, 2.7 µm, 0.3 mL/min, estimated dead time 0.73 min; A: water + 0.1% formic acid, pH 3; B: methanol + 0.1% formic acid, pH 3; gradient (min/%B) 0/0 5/0 25/100 30/100 30.1/0 35/0. The source holds these as a separate data set.
The nature of data set [24]: RP, Waters ACQUITY UPLC BEH C18, 100 × 2.1 mm, 1.7 µm, 0.2 mL/min, estimated dead time 1.1 min; A: water + 0.1% formic acid, pH 3; B: methanol + 0.1% formic acid, pH 3; gradient (min/%B) 0/5 5/5 25/100 30/100 30.1/5 35/5.
The nature of data set [25]: RP, Waters CORTECS T3, 100 × 2.1 mm, 2.7 µm, 0.3 mL/min, estimated dead time 0.73 min; A: water + 0.1% formic acid, pH 3; B: methanol + 0.1% formic acid, pH 3; gradient (min/%B) 0/0 1/0 6/5 30/100 35/100 35.1/0 40/0. This is another data set of the same source.
A short description of data set [26]: RP, Waters CORTECS T3, 100 × 2.1 mm, 2.7 µm, 0.25 mL/min, estimated dead time 0.88 min; A: water + 0.1% formic acid, pH 3; B: methanol + 0.1% formic acid, pH 3; gradient (min/%B) 0/5 5/5 25/95 25.1/100 35/100 35.1/5 45/5.
The nature of data set [27]: RP, Waters ACQUITY UPLC BEH C18, 100 × 2.1 mm, 1.7 µm, 0.1 mL/min, estimated dead time 2.2 min; A: water + 0.1% formic acid, pH 3; B: methanol + 0.1% formic acid, pH 3; gradient (min/%B) 0/5 5/5 25/95 25.1/100 35/100 35.1/5 45/5. This is another data set of the same source.

In the case of `CC1NCCc2cc(O)c(O)cc21` (stereo not given) [1-METHYL-6,7-DIHYDROXY-1,2,3,4-TETRAHYDROISOQUINOLINE], the LC retention time in data set [1] was 0.9 min; in data set [2], 1.83 min; in [3] it was 2.74 min; in data set [4] it was 0.93 min; in data set [5], 0.92 min; in [6], 2.66 min. Moreover, the LC retention time in data set [7] was 8.92 min; in [8], 1.34 min; in [9], 17.8 min.

As to `NC(=O)Cc1c[nH]c2ccccc12` [INDOLE-3-ACETAMIDE], the LC retention time in [1] was 9.92 min; in [2], 14.5 min; in data set [10] it was 15.6 min; in data set [11], 11.9 min; in [3], 15.4 min; in data set [12], 11.9 min. The LC retention time in data set [4] was 11.1 min; in data set [13], 11.6 min; in data set [14] it was 11.7 min; in data set [5], 11.4 min; in [15] it was 15.2 min; in [16], 9.85 min. The LC retention time in [6] is 15.6 min; in data set [17] it was 0.95 min; in data set [18] it was 12.1 min; in [8] it was 13 min; in [19] it was 0.91 min.

`CCC(NC(=O)CCC(N)C(=O)O)C(=O)NCC(=O)O` (stereo not given) [OPHTHALMIC ACID]: the LC retention time in data set [1] was 0.9 min; in [2], 1.87 min; in data set [20], 2.74 min; in [21] it was 1.38 min; in [3] it was 2.74 min; in [22], 1.78 min. In addition, the LC retention time in data set [23] is 0.93 min; in [24] it was 1.42 min; in [25], 0.96 min; in data set [12] it was 1.36 min; in data set [4], 0.93 min; in data set [26], 1.08 min. For the same molecule, the LC retention time in data set [5] is 0.92 min; in data set [16], 0.93 min; in data set [6] it was 2.66 min; in data set [17] it was 13.8 min; in data set [27], 2.7 min; in data set [18] it was 1.13 min. Besides, the LC retention time in [8] was 1.38 min; in data set [19], 14.5 min; in [9] it was 18.5 min.

Regarding `NC(=O)C1CCCN1C(=O)C(Cc1cnc[nH]1)NC(=O)C1CCC(=O)N1` (stereo not given) [THYROTROPIN RELEASING HORMONE], the LC retention time was 0.9 min in data set [1]; 1.83 min in [2]; 2.67 min in [20]; 7.17 min in data set [11]; 2.74 min in data set [3]; 1.38 min in data set [24]. For the same molecule, the LC retention time in [4] is 0.89 min; in [5], 0.92 min; in data set [6], 2.66 min; in data set [27], 2.7 min; in [18], 1.09 min; in [8] it was 1.34 min. In addition, the LC retention time in data set [9] was 15.7 min.

(Values after the RepoRT retention time repository (doi:10.1016/j.jchromb.2020.122105).)
